# In patent US20210045385A1, “PYRIDAZINONE-SUBSTITUTED KETOXIMES AS HERBICIDES” (FMC Corporation, priority 2018, published 2021):
# Experiments:
# Type in all cases: in vivo
# kochia (Kochia scoparia) [1] = assay: Test A preemergence, visual plant response rating; settings: for Kochia plant response rating: 125 g ai/ha, preemergence, 0 to 100 scale, 0 no effect, 100 complete control; for Kochia plant response rating (0 to 100 scale): 500 g ai/ha Preemergence, approx. 10 days
# Outline: (§1)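 Ratings use a 0–100 visual scale (100 = complete control) against untreated controls, scored about 10 days after greenhouse treatment. Test chemicals were formulated in surfactant-containing non-phytotoxic solvent and applied either as soil spray after planting (preemergence) or onto one- to two-leaf, 2–10 cm plants (postemergence).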
# [2] = system: ragweed (common ragweed, Ambrosia elatior); assay: Test A preemergence, visual plant response rating; settings: for Ragweed plant response rating: 125 g ai/ha, preemergence, 0 to 100 scale, 0 no effect, 100 complete control; for Ragweed plant response rating (0 to 100 scale): 500 g ai/ha Preemergence, approx. 10 days
# Outline: as §1
# [3] = system: foxtail, giant (giant foxtail, Setaria faberii); assay: Test A preemergence, visual plant response rating; settings: for Foxtail, Giant plant response rating: 125 g ai/ha, preemergence, 0 to 100 scale, 0 no effect, 100 complete control; for Foxtail, Giant plant response rating (0 to 100 scale): 500 g ai/ha Preemergence, approx. 10 days
# Outline: as §1
# [4] = system: barnyardgrass (Echinochloa crus-galli); assay: Test A preemergence, visual plant response rating; settings: for Barnyardgrass plant response rating: 125 g ai/ha, preemergence, 0 to 100 scale, 0 no effect, 100 complete control; for Barnyardgrass plant response rating (0 to 100 scale): 500 g ai/ha Preemergence, approx. 10 days
# Outline: as §1
# [5] = system: pigweed (Amaranthus retroflexus); assay: Test A preemergence, visual plant response rating; settings: for Pigweed plant response rating: 125 g ai/ha, preemergence, 0 to 100 scale, 0 no effect, 100 complete control; for Pigweed plant response rating (0 to 100 scale): 500 g ai/ha Preemergence, approx. 10 days
# Outline: as §1
# [6] = system: Italian ryegrass (Lolium multiflorum); assay: Test A preemergence, visual plant response rating; settings: for Ryegrass, Italian plant response rating: 125 g ai/ha, preemergence, 0 to 100 scale, 0 no effect, 100 complete control; for Ryegrass, Italian plant response rating (0 to 100 scale): 500 g ai/ha Preemergence, approx. 10 days
# Outline: as §1
# kochia (Kochia scoparia) [7] = assay: Test A postemergence, visual plant response rating; settings: for Kochia plant response rating (0 to 100 scale): 500 g ai/ha, postemergence, 0 is no effect, 100 is complete control; for Kochia plant response rating: Postemergence, 125 g ai/ha, 0 to 100 scale (0 no effect, 100 complete control)
# Outline: as §1
# [8] = system: galium (catchweed bedstraw, Galium aparine); assay: Test A postemergence, visual plant response rating; settings: for Galium plant response rating (0 to 100 scale): 500 g ai/ha, postemergence, 0 is no effect, 100 is complete control; for Galium plant response rating: Postemergence, 125 g ai/ha, 0 to 100 scale (0 no effect, 100 complete control)
# Outline: as §1
# [9] = system: wheat (Triticum aestivum); assay: Test A postemergence, visual plant response rating; settings: for Wheat plant response rating (0 to 100 scale): 500 g ai/ha, postemergence, 0 is no effect, 100 is complete control; for Wheat plant response rating: Postemergence, 125 g ai/ha, 0 to 100 scale (0 no effect, 100 complete control)
# Outline: as §1
# [10] = system: ragweed (common ragweed, Ambrosia elatior); assay: Test A postemergence, visual plant response rating; settings: for Ragweed plant response rating (0 to 100 scale): 500 g ai/ha, postemergence, 0 is no effect, 100 is complete control; for Ragweed plant response rating: Postemergence, 125 g ai/ha, 0 to 100 scale (0 no effect, 100 complete control)
# Outline: as §1
# corn (Zea mays) = assay: Test A postemergence, visual plant response rating; settings: for Corn plant response rating (0 to 100 scale): 500 g ai/ha, postemergence, 0 is no effect, 100 is complete control; for Corn plant response rating: Postemergence, 125 g ai/ha, 0 to 100 scale (0 no effect, 100 complete control)
# Outline: as §1
# [11] = system: blackgrass (Alopecurus myosuroides); assay: Test A postemergence, visual plant response rating; settings: for Blackgrass plant response rating (0 to 100 scale): 500 g ai/ha, postemergence, 0 is no effect, 100 is complete control; for Blackgrass plant response rating: Postemergence, 125 g ai/ha, 0 to 100 scale (0 no effect, 100 complete control)
# Outline: as §1
# [12] = system: foxtail, giant (giant foxtail, Setaria faberii); assay: Test A postemergence, visual plant response rating; settings: for Foxtail, Giant plant response rating (0 to 100 scale): 500 g ai/ha, postemergence, 0 is no effect, 100 is complete control; for Foxtail, Giant plant response rating: Postemergence, 125 g ai/ha, 0 to 100 scale (0 no effect, 100 complete control)
# Outline: as §1
# [13] = system: barnyardgrass (Echinochloa crus-galli); assay: Test A postemergence, visual plant response rating; settings: for Barnyardgrass plant response rating (0 to 100 scale): 500 g ai/ha, postemergence, 0 is no effect, 100 is complete control; for Barnyardgrass plant response rating: Postemergence, 125 g ai/ha, 0 to 100 scale (0 no effect, 100 complete control)
# Outline: as §1
# [14] = system: pigweed (Amaranthus retroflexus); assay: Test A postemergence, visual plant response rating; settings: for Pigweed plant response rating (0 to 100 scale): 500 g ai/ha, postemergence, 0 is no effect, 100 is complete control; for Pigweed plant response rating: Postemergence, 125 g ai/ha, 0 to 100 scale (0 no effect, 100 complete control)
# Outline: as §1
# [15] = system: Italian ryegrass (Lolium multiflorum); assay: Test A postemergence, visual plant response rating; settings: for Ryegrass, Italian plant response rating (0 to 100 scale): 500 g ai/ha, postemergence, 0 is no effect, 100 is complete control; for Ryegrass, Italian plant response rating: Postemergence, 125 g ai/ha, 0 to 100 scale (0 no effect, 100 complete control)
# Outline: as §1
# rice (Oryza sativa) = assay: Test B flooded paddy test, visual plant response rating; settings: 250 g ai/ha, Flood, applied to paddy water, 2-leaf stage, evaluated after 13 to 15 days
# Outline: (§2)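 Compounds added straight into paddy water of pots flooded to 3 cm, with 2-leaf-stage plants of the four species; water level held throughout.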
# [16] = system: ducksalad (Heteranhera limosa); assay: as above; settings: 250 g ai/ha, Flood, applied to paddy water, 2-leaf stage, evaluated after 13 to 15 days
# Outline: as §2
# [17] = system: barnyardgrass (Echinochloa crus-galli); assay: as above; settings: 250 g ai/ha, Flood, applied to paddy water, 2-leaf stage, evaluated after 13 to 15 days
# Outline: as §2
# [18] = system: sedge, umbrella (small-flower umbrella sedge, Cyperus difformis); assay: as above; settings: 250 g ai/ha, Flood, applied to paddy water, 2-leaf stage, evaluated after 13 to 15 days
# Outline: as §2
Structure (SMILES),Kochia plant response rating (kochia (Kochia scoparia) [1]),Kochia plant response rating (0 to 100 scale) (kochia (Kochia scoparia) [1]),Ragweed plant response rating [2],Ragweed plant response rating (0 to 100 scale) [2],"Foxtail, Giant plant response rating [3]","Foxtail, Giant plant response rating (0 to 100 scale) [3]",Barnyardgrass plant response rating [4],Barnyardgrass plant response rating (0 to 100 scale) [4],Pigweed plant response rating [5],Pigweed plant response rating (0 to 100 scale) [5],"Ryegrass, Italian plant response rating [6]","Ryegrass, Italian plant response rating (0 to 100 scale) [6]",Kochia plant response rating (0 to 100 scale) (kochia (Kochia scoparia) [7]),Kochia plant response rating (kochia (Kochia scoparia) [7]),Galium plant response rating (0 to 100 scale) [8],Galium plant response rating [8],Wheat plant response rating (0 to 100 scale) [9],Wheat plant response rating [9],Ragweed plant response rating (0 to 100 scale) [10],Ragweed plant response rating [10],further results
CON=C(c1c(O)c(C)nn(C)c1=O)c1ccc(F)c2ccccc12 [Compound 51],10,80,90,100,70,100,60,80,90,90,70,100,90,80,100,100,90,70,100,80,"Corn plant response rating (0 to 100 scale) (corn (Zea mays)): 20; Corn plant response rating (corn (Zea mays)): 10; Blackgrass plant response rating (0 to 100 scale) [11]: 100; Blackgrass plant response rating [11]: 90; Foxtail, Giant plant response rating (0 to 100 scale) [12]: 90; Foxtail, Giant plant response rating [12]: 50; Barnyardgrass plant response rating (0 to 100 scale) [13]: 80; Barnyardgrass plant response rating [13]: 30; Pigweed plant response rating (0 to 100 scale) [14]: 90; Pigweed plant response rating [14]: 90; Ryegrass, Italian plant response rating (0 to 100 scale) [15]: 100; Ryegrass, Italian plant response rating [15]: 90; Plant response rating, Rice (0 to 100 scale, 0 is no effect, 100 is complete control) (rice (Oryza sativa)): 15; Plant response rating, Ducksalad (0 to 100 scale, 0 is no effect, 100 is complete control) [16]: 75; Plant response rating, Barnyardgrass (0 to 100 scale, 0 is no effect, 100 is complete control) [17]: 15; Plant response rating, Sedge, Umbrella (0 to 100 scale, 0 is no effect, 100 is complete control) [18]: 65"
CO/N=C(\c1cscc1C)c1c(O)c(C)nn(C)c1=O [Compound 52],0,20,0,30,0,10,0,10,60,80,0,40,60,20,80,70,0,0,90,60,"Corn plant response rating (0 to 100 scale) (corn (Zea mays)): 0; Corn plant response rating (corn (Zea mays)): 0; Blackgrass plant response rating (0 to 100 scale) [11]: 30; Blackgrass plant response rating [11]: 0; Foxtail, Giant plant response rating (0 to 100 scale) [12]: 20; Foxtail, Giant plant response rating [12]: 10; Barnyardgrass plant response rating (0 to 100 scale) [13]: 30; Barnyardgrass plant response rating [13]: 10; Pigweed plant response rating (0 to 100 scale) [14]: 90; Pigweed plant response rating [14]: 70; Ryegrass, Italian plant response rating (0 to 100 scale) [15]: 80; Ryegrass, Italian plant response rating [15]: 10; Plant response rating, Rice (0 to 100 scale, 0 is no effect, 100 is complete control) (rice (Oryza sativa)): 0; Plant response rating, Ducksalad (0 to 100 scale, 0 is no effect, 100 is complete control) [16]: 0; Plant response rating, Barnyardgrass (0 to 100 scale, 0 is no effect, 100 is complete control) [17]: 0; Plant response rating, Sedge, Umbrella (0 to 100 scale, 0 is no effect, 100 is complete control) [18]: 0"
CO/N=C(\c1ccc(C)o1)c1c(O)c(C)nn(C)c1=O [Compound 53],0,0,0,0,0,0,0,0,0,0,0,0,0,0,0,0,0,0,0,0,"Corn plant response rating (0 to 100 scale) (corn (Zea mays)): 30; Corn plant response rating (corn (Zea mays)): 0; Blackgrass plant response rating (0 to 100 scale) [11]: 40; Blackgrass plant response rating [11]: 10; Foxtail, Giant plant response rating (0 to 100 scale) [12]: 90; Foxtail, Giant plant response rating [12]: 10; Barnyardgrass plant response rating (0 to 100 scale) [13]: 70; Barnyardgrass plant response rating [13]: 10; Pigweed plant response rating (0 to 100 scale) [14]: 0; Pigweed plant response rating [14]: 0; Ryegrass, Italian plant response rating (0 to 100 scale) [15]: 90; Ryegrass, Italian plant response rating [15]: 20; Plant response rating, Rice (0 to 100 scale, 0 is no effect, 100 is complete control) (rice (Oryza sativa)): 0; Plant response rating, Ducksalad (0 to 100 scale, 0 is no effect, 100 is complete control) [16]: 0; Plant response rating, Barnyardgrass (0 to 100 scale, 0 is no effect, 100 is complete control) [17]: 0; Plant response rating, Sedge, Umbrella (0 to 100 scale, 0 is no effect, 100 is complete control) [18]: 0"
